# Assay results as given in patent US20110046131A1, “PURINES AS PKC-THETA INHIBITORS” (N.V. Organon and Pharmacopeia, LLC, priority 2006, published 2011).
# What was measured:
# PKCθ = biological target: T1, PKCθ (Homo sapiens, UniProt Q04759); test: Ki Pan Vera (PV) potency for PKCθ; format: biochemical; conditions: Ki Pan Vera (PV) of PKCθ
# T1 construct: purchased Pan Vera
# Experimental: (§1) For Ki Pan Vera (PV) of PKCθ, entries identified with “A” had values below 100 nM; entries identified with “B” had values below 1 μM; and entries identified with “C” had values below 10 μM.
# PKC delta = biological target: T2, PKC delta (Homo sapiens, UniProt Q05655); test: Ki Pan Vera (PV) potency for PKC delta; format: biochemical; conditions: Ki Pan Vera (PV) of PKC delta
# T2 construct: purchased Pan Vera
# T2 sequence (Q05655 whole entry): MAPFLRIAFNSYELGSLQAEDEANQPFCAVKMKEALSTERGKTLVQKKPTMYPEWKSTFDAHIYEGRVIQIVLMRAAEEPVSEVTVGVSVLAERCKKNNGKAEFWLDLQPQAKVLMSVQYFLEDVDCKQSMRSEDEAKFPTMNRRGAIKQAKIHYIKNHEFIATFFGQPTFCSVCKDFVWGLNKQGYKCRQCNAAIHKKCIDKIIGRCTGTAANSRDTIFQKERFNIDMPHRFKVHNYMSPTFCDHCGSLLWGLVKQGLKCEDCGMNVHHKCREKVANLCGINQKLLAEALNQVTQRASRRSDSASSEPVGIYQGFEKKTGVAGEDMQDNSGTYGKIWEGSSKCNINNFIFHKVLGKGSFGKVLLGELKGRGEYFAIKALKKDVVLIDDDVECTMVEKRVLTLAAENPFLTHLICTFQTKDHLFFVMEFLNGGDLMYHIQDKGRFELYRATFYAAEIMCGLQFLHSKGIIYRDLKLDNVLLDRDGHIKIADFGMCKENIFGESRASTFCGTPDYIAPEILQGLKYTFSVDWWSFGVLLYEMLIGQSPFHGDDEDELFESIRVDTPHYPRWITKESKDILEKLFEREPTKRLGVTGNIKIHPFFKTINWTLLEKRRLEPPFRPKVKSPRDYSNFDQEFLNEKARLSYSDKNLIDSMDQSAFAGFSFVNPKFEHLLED
# Experimental: [The source words this procedure for another target and reports this target under the same test.] as §1
# [1] = tested on: anti-CD3 induced interleukin-2 (IL-2) production; test: anti-CD3 induced interleukin-2 (IL-2) production in mice; format: in vivo
# Experimental: The compounds of the invention were also tested in vivo.
# SGK kinase = biological target: T3, SGK kinase (Homo sapiens, UniProt O00141); test: IC50 for SGK kinase (selectivity); format: biochemical
# T3 sequence (O00141 1-431): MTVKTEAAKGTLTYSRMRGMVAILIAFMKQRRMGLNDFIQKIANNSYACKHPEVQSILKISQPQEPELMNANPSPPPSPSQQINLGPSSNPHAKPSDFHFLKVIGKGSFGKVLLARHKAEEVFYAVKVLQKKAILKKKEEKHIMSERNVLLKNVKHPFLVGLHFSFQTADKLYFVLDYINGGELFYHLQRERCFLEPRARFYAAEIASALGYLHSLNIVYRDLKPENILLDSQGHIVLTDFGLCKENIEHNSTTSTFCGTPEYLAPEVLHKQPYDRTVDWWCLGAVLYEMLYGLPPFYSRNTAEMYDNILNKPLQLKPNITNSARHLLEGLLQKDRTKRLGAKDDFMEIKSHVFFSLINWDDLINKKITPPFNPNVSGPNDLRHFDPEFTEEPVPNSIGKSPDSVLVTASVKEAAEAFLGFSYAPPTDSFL
# Experimental: Entries identified with “1” had values above 250 nM; entries identified with “2” had values above 1 μM; entries identified with “3” had values above 10 μM.
# PKC alpha = biological target: T4, PKC alpha (Homo sapiens, UniProt P17252); test: Ki Pan Vera (PV) potency for PKC alpha; format: biochemical; conditions: Ki Pan Vera (PV) of PKC alpha
# T4 construct: purchased Pan Vera
# Experimental: [The source words this procedure for another target and reports this target under the same test.] as §1
# T1 sequence (Q04759 whole entry): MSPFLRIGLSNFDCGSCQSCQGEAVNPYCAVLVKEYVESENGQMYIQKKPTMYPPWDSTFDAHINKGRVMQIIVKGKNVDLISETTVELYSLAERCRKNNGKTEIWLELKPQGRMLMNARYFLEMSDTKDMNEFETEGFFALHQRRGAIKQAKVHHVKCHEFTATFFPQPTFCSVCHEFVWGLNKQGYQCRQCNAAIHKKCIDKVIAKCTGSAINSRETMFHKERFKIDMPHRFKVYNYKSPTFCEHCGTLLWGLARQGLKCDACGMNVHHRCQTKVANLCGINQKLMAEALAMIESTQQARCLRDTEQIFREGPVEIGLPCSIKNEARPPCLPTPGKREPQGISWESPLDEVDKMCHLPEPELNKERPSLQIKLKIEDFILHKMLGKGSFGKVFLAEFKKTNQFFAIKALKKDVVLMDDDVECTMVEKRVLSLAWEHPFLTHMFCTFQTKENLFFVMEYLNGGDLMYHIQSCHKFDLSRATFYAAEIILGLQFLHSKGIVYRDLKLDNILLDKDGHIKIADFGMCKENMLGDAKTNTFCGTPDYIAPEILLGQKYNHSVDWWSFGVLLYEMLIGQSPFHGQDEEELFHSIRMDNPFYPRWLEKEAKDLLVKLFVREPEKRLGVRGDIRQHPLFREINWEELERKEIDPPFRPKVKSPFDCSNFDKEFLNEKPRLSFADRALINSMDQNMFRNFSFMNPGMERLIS
Compound,Ki (PKCθ) [nM],Ki (PKC delta) [nM],% inhibition of IL-2 production ([1]; subcutaneous dose 30 mg/kg) [%],IC50-SGK1 (SGK kinase),Ki (PKC alpha) [nM],% inhibition of IL-2 production ([1]; subcutaneous dose 1 mg/kg) [%],IC50 (SGK kinase; read-out: IC50-SGK1) [nM]
Fc1ccc(CNc2ncc3nc(-c4c(Cl)cccc4Cl)n(C[C@@H]4CCCNC4)c3n2)cc1Cl [Compound 100],< 100,> 250,38,Inactive,> 1000,–,–
"C=CC[C@@H]1/C=C(\C)C[C@H](C)C[C@H](OC)[C@H]2O[C@@](O)(C(=O)C(=O)N3CCCC[C@H]3C(=O)O[C@H](/C(C)=C/[C@@H]3CC[C@@H](O)[C@H](OC)C3)[C@H](C)[C@@H](O)CC1=O)[C@H](C)C[C@@H]2OC [FK506, reference compound]",–,–,–,–,–,87,–
Fc1ccc(CNc2ncc3nc(-c4c(Cl)cccc4Cl)n(C[C@@H]4CCCNC4)c3n2)cc1F [Compound 101],< 100,> 250,58,Inactive,> 1000,–,–
"Fc1ccc(CNc2ncc3nc(-c4c(F)cccc4Cl)n(C[C@@H]4CCCNC4)c3n2)cc1F [Compound 113, N-(3,4-difluorobenzyl)-8-(2-chloro-6-fluorophenyl)-9-((R)-piperidin-3-ylmethyl)-9H-purin-2-amine]",< 100,> 250,38,–,> 1000,–,–
Fc1ccc(CNc2ncc3nc(-c4c(Cl)cccc4Cl)n(C[C@H]4CCNC4)c3n2)cc1Cl [Compound 120],< 1000,> 1000,35,Inactive,> 1000,–,–
Fc1ccc(F)c(CNc2ncc3nc(-c4c(Cl)cccc4Cl)n(CC4CCNC4)c3n2)c1 (stereo not drawn) [Compound 161],< 100,> 250,–,–,> 250,–,> 10000
Fc1ccc(CNc2ncc3nc(-c4c(Cl)cccc4Cl)n(C[C@H]4CCNC4)c3n2)cc1F [Compound 121],< 100,> 1000,–,Inactive,> 1000,–,–
Fc1ccccc1CNc1ncc2nc(-c3c(Cl)cccc3Cl)n(CCC3CCCNC3)c2n1 (stereo not drawn) [Compound 164],< 1000,> 1000,–,Inactive,> 1000,–,–
Fc1ccc(CNc2ncc3nc(-c4ccccc4Cl)n(C[C@@H]4CCCNC4)c3n2)c(F)c1 [Compound 210],< 10000,> 1000,–,Inactive,> 10000,–,–
